According to ChEMBL document CHEMBL1275409, “Antimicrobial-resistant pathogens in intensive care units in Canada: results of the Canadian National Intensive Care Unit (CAN-ICU) study, 2005-2006” (2008):

Tests used:
Assay type in all cases: functional
Staphylococcus aureus [1] = test: Antimicrobial activity against methicillin-resistant Staphylococcus aureus isolated from ICU patient wound assessed as resistant isolates by broth microdilution method
Staphylococcus aureus [2] = test: Antimicrobial activity against methicillin-resistant Staphylococcus aureus isolated from ICU patient urine assessed as resistant isolates by broth microdilution method
Staphylococcus aureus [3] = test: Antimicrobial activity against methicillin-susceptible Staphylococcus aureus isolated from ICU patient respiratory tract assessed as resistant isolates by broth microdilution method
Staphylococcus aureus [4] = test: Antimicrobial activity against methicillin-susceptible Staphylococcus aureus isolated from ICU patient wound assessed as resistant isolates by broth microdilution method
Staphylococcus aureus [5] = test: Antimicrobial activity against methicillin-susceptible Staphylococcus aureus isolated from ICU patient urine assessed as resistant isolates by broth microdilution method
Staphylococcus aureus [6] = test: Antimicrobial activity against methicillin-susceptible Staphylococcus aureus isolated from ICU patient blood assessed as resistant isolates by broth microdilution method
Haemophilus influenzae [7] = test: Antimicrobial activity against Haemophilus influenzae assessed as resistant isolates by broth microdilution method
Haemophilus influenzae [8] = test: Antimicrobial activity against Haemophilus influenzae isolated from ICU patient blood assessed as resistant isolates by broth microdilution method
Haemophilus influenzae [9] = test: Antimicrobial activity against Haemophilus influenzae isolated from ICU patient wound assessed as resistant isolates by broth microdilution method
Haemophilus influenzae [10] = test: Antimicrobial activity against Haemophilus influenzae isolated from ICU patient respiratory tract assessed as resistant isolates by broth microdilution method
Pseudomonas aeruginosa [11] = test: Antimicrobial activity against carbapenem-resistant Pseudomonas aeruginosa isolated from ICU patient respiratory tract assessed as resistant isolates by broth microdilution method
Pseudomonas aeruginosa [12] = test: Antimicrobial activity against carbapenem-resistant Pseudomonas aeruginosa isolated from ICU patient wound assessed as resistant isolates by broth microdilution method
Pseudomonas aeruginosa [13] = test: Antimicrobial activity against carbapenem-resistant Pseudomonas aeruginosa isolated from ICU patient urine assessed as resistant isolates by broth microdilution method
Pseudomonas aeruginosa [14] = test: Antimicrobial activity against carbapenem-resistant Pseudomonas aeruginosa isolated from ICU patient blood assessed as resistant isolates by broth microdilution method
Pseudomonas aeruginosa [15] = test: Antimicrobial activity against carbapenem-resistant Pseudomonas aeruginosa assessed as resistant isolates by broth microdilution method
Klebsiella pneumoniae [16] = test: Antimicrobial activity against ESBL producing Klebsiella pneumoniae isolated from ICU patient respiratory tract assessed as resistant isolates by broth microdilution method
Klebsiella pneumoniae [17] = test: Antimicrobial activity against ESBL producing Klebsiella pneumoniae isolated from ICU patient wound assessed as resistant isolates by broth microdilution method
Klebsiella pneumoniae [18] = test: Antimicrobial activity against ESBL producing Klebsiella pneumoniae isolated from ICU patient urine assessed as resistant isolates by broth microdilution method
Klebsiella pneumoniae [19] = test: Antimicrobial activity against ESBL producing Klebsiella pneumoniae isolated from ICU patient blood assessed as resistant isolates by broth microdilution method
Klebsiella pneumoniae [20] = test: Antimicrobial activity against ESBL producing Klebsiella pneumoniae assessed as resistant isolates by broth microdilution method
Escherichia coli [21] = test: Antimicrobial activity against CTX-M ESBL producing Escherichia coli isolated from ICU patient respiratory tract assessed as resistant isolates by broth microdilution method
Escherichia coli [22] = test: Antimicrobial activity against CTX-M ESBL producing Escherichia coli isolated from ICU patient wound assessed as resistant isolates by broth microdilution method
Escherichia coli [23] = test: Antimicrobial activity against CTX-M ESBL producing Escherichia coli isolated from ICU patient urine assessed as resistant isolates by broth microdilution method
Escherichia coli [24] = test: Antimicrobial activity against CTX-M ESBL producing Escherichia coli isolated from ICU patient blood assessed as resistant isolates by broth microdilution method
Escherichia coli [25] = test: Antimicrobial activity against CTX-M ESBL producing Escherichia coli assessed as resistant isolates by broth microdilution method
Enterococcus sp. [26] = test: Antimicrobial activity against vancomycin-resistant Enterococcus sp. isolated from ICU patient respiratory tract assessed as resistant isolates by broth microdilution method
Enterococcus sp. [27] = test: Antimicrobial activity against vancomycin-resistant Enterococcus sp. isolated from ICU patient wound assessed as resistant isolates by broth microdilution method
Enterococcus sp. [28] = test: Antimicrobial activity against vancomycin-resistant Enterococcus sp. isolated from ICU patient urine assessed as resistant isolates by broth microdilution method
Enterococcus sp. [29] = test: Antimicrobial activity against vancomycin-resistant Enterococcus sp. assessed as resistant isolates by broth microdilution method
Enterococcus sp. [30] = test: Antimicrobial activity against vancomycin-resistant Enterococcus sp. isolated from ICU patient blood assessed as resistant isolates by broth microdilution method
Streptococcus pneumoniae [31] = test: Antimicrobial activity against penicillin-resistant Streptococcus pneumoniae isolated from ICU patient respiratory tract assessed as resistant isolates by broth microdilution method
Streptococcus pneumoniae [32] = test: Antimicrobial activity against penicillin-resistant Streptococcus pneumoniae isolated from ICU patient wound assessed as resistant isolates by broth microdilution method
Streptococcus pneumoniae [33] = test: Antimicrobial activity against penicillin-resistant Streptococcus pneumoniae isolated from ICU patient blood assessed as resistant isolates by broth microdilution method
Streptococcus pneumoniae [34] = test: Antimicrobial activity against penicillin-resistant Streptococcus pneumoniae assessed as resistant isolates by broth microdilution method
[35] = system: Staphylococcus epidermidis; test: Antimicrobial activity against methicillin-resistant Staphylococcus epidermidis isolated from ICU patient wound assessed as resistant isolates by broth microdilution method
[36] = system: Staphylococcus epidermidis; test: Antimicrobial activity against methicillin-resistant Staphylococcus epidermidis isolated from ICU patient urine assessed as resistant isolates by broth microdilution method
[37] = system: Staphylococcus epidermidis; test: Antimicrobial activity against methicillin-resistant Staphylococcus epidermidis isolated from ICU patient blood assessed as resistant isolates by broth microdilution method
[38] = system: Staphylococcus epidermidis; test: Antimicrobial activity against methicillin-resistant Staphylococcus epidermidis assessed as resistant isolates by broth microdilution method
[39] = system: Staphylococcus epidermidis; test: Antimicrobial activity against methicillin-susceptible Staphylococcus epidermidis isolated from ICU patient respiratory tract assessed as resistant isolates by broth microdilution method
[40] = system: Staphylococcus epidermidis; test: Antimicrobial activity against methicillin-susceptible Staphylococcus epidermidis isolated from ICU patient wound assessed as resistant isolates by broth microdilution method
[41] = system: Staphylococcus epidermidis; test: Antimicrobial activity against methicillin-susceptible Staphylococcus epidermidis isolated from ICU patient urine assessed as resistant isolates by broth microdilution method
[42] = system: Staphylococcus epidermidis; test: Antimicrobial activity against methicillin-susceptible Staphylococcus epidermidis isolated from ICU patient blood assessed as resistant isolates by broth microdilution method
[43] = system: Staphylococcus epidermidis; test: Antimicrobial activity against methicillin-susceptible Staphylococcus epidermidis assessed as resistant isolates by broth microdilution method
Staphylococcus aureus [44] = test: Antimicrobial activity against methicillin-resistant Staphylococcus aureus isolated from ICU patient respiratory tract assessed as resistant isolates by broth microdilution method
Staphylococcus aureus [45] = test: Antimicrobial activity against methicillin-resistant Staphylococcus aureus isolated from ICU patient blood assessed as resistant isolates by broth microdilution method
Staphylococcus aureus [46] = test: Antimicrobial activity against methicillin-resistant Staphylococcus aureus assessed as resistant isolates by broth microdilution method
Staphylococcus aureus [47] = test: Antimicrobial activity against methicillin-susceptible Staphylococcus aureus assessed as resistant isolates by broth microdilution method
Enterobacter cloacae [48] = test: Antimicrobial activity against carbapenem-resistant Enterobacter cloacae isolated from ICU patient respiratory tract assessed as resistant isolates by broth microdilution method
Enterobacter cloacae [49] = test: Antimicrobial activity against carbapenem-resistant Enterobacter cloacae isolated from ICU patient wound assessed as resistant isolates by broth microdilution method
Enterobacter cloacae [50] = test: Antimicrobial activity against carbapenem-resistant Enterobacter cloacae isolated from ICU patient urine assessed as resistant isolates by broth microdilution method
Enterobacter cloacae [51] = test: Antimicrobial activity against carbapenem-resistant Enterobacter cloacae isolated from ICU patient blood assessed as resistant isolates by broth microdilution method
Enterobacter cloacae [52] = test: Antimicrobial activity against carbapenem-resistant Enterobacter cloacae assessed as resistant isolates by broth microdilution method

`O=C(O)c1cn(C2CC2)c2cc(N3CCNCC3)c(F)cc2c1=O` [CIPROFLOXACIN] was tested, and the Activity (Staphylococcus aureus [1]) was 92.6%, the Activity (Staphylococcus aureus [2]) was 100% and the Activity (Staphylococcus aureus [3]) was 7.5%. For the same compound, the Activity (Staphylococcus aureus [4]) was 8%, the Activity (Staphylococcus aureus [5]) was 20% and the Activity (Staphylococcus aureus [6]) was 6.9%. For the same compound, the Activity (Haemophilus influenzae [7]) was 0%, the Activity (Haemophilus influenzae [8]) was 0% and the Activity (Haemophilus influenzae [9]) was 0%. It also gave an Activity (Haemophilus influenzae [10]) of 0%, an Activity (Pseudomonas aeruginosa [11]) of 4.1% and an Activity (Pseudomonas aeruginosa [12]) of 11.5%. For the same compound, the Activity (Pseudomonas aeruginosa [13]) was 0%, the Activity (Pseudomonas aeruginosa [14]) was 3.9% and the Activity (Pseudomonas aeruginosa [15]) was 4%. For the same compound, the Activity (Klebsiella pneumoniae [16]) was 20.8%, the Activity (Klebsiella pneumoniae [17]) was 28.3% and the Activity (Klebsiella pneumoniae [18]) was 37.8%. The Activity (Klebsiella pneumoniae [19]) was 24.2%, the Activity (Klebsiella pneumoniae [20]) was 23.8% and the Activity (Escherichia coli [21]) was 21.3%. The Activity (Escherichia coli [22]) was 24.1%, the Activity (Escherichia coli [23]) was 19.8% and the Activity (Escherichia coli [24]) was 23.3%. It also gave an Activity (Escherichia coli [25]) of 21.1%, an Activity (Enterococcus sp. [26]) of 46.7% and an Activity (Enterococcus sp. [27]) of 50%. The Activity (Enterococcus sp. [28]) was 54.7%, the Activity (Enterococcus sp. [29]) was 53.4% and the Activity (Enterococcus sp. [30]) was 58.1%. It also gave an Activity (Streptococcus pneumoniae [31]) of 2.6%, an Activity (Streptococcus pneumoniae [32]) of 0% and an Activity (Streptococcus pneumoniae [33]) of 0%. For the same compound, the Activity (Streptococcus pneumoniae [34]) was 2.1%, the Activity [35] was 100% and the Activity [36] was 100%. It also gave an Activity [37] of 100%, an Activity [38] of 100% and an Activity [39] of 100%. It also gave an Activity [40] of 70.8%, an Activity [41] of 80% and an Activity [42] of 44.6%. For the same compound, the Activity [43] was 54.7%.

`C[C@H]1COc2c(N3CCN(C)CC3)c(F)cc3c(=O)c(C(=O)O)cn1c23.C[C@H]1COc2c(N3CCN(C)CC3)c(F)cc3c(=O)c(C(=O)O)cn1c23.O` [LEVOFLOXACIN] was tested, and the Activity (Staphylococcus aureus [44]) was 91.5%, the Activity (Staphylococcus aureus [1]) was 92.6% and the Activity (Staphylococcus aureus [2]) was 100%. The Activity (Staphylococcus aureus [45]) was 91.8%, the Activity (Staphylococcus aureus [46]) was 91.8% and the Activity (Staphylococcus aureus [3]) was 6.9%. For the same compound, the Activity (Staphylococcus aureus [4]) was 7.1%, the Activity (Staphylococcus aureus [5]) was 20% and the Activity (Staphylococcus aureus [6]) was 6.9%. For the same compound, the Activity (Staphylococcus aureus [47]) was 7.3%, the Activity (Enterobacter cloacae [48]) was 0% and the Activity (Haemophilus influenzae [7]) was 0%. The Activity (Haemophilus influenzae [8]) was 0%, the Activity (Haemophilus influenzae [9]) was 0% and the Activity (Haemophilus influenzae [10]) was 0%. The Activity (Enterobacter cloacae [49]) was 5.9%, the Activity (Enterobacter cloacae [50]) was 6.3% and the Activity (Enterobacter cloacae [51]) was 4.2%. For the same compound, the Activity (Enterobacter cloacae [52]) was 1.8%, the Activity (Pseudomonas aeruginosa [11]) was 3.3% and the Activity (Pseudomonas aeruginosa [12]) was 11.5%. For the same compound, the Activity (Pseudomonas aeruginosa [13]) was 0%, the Activity (Pseudomonas aeruginosa [14]) was 3.9% and the Activity (Pseudomonas aeruginosa [15]) was 3.6%. For the same compound, the Activity (Klebsiella pneumoniae [16]) was 21.5%, the Activity (Klebsiella pneumoniae [18]) was 40% and the Activity (Klebsiella pneumoniae [19]) was 24.2%. The Activity (Klebsiella pneumoniae [20]) was 25.5%, the Activity (Escherichia coli [21]) was 21.3% and the Activity (Escherichia coli [22]) was 24.1%. It also gave an Activity (Escherichia coli [23]) of 19.8%, an Activity (Escherichia coli [24]) of 23.3% and an Activity (Escherichia coli [25]) of 21.1%. The Activity (Enterococcus sp. [26]) was 46.7%, the Activity (Enterococcus sp. [27]) was 45.8% and the Activity (Enterococcus sp. [28]) was 52%. The Activity (Enterococcus sp. [29]) was 51%, the Activity (Enterococcus sp. [30]) was 56.8% and the Activity (Streptococcus pneumoniae [31]) was 2.1%. It also gave an Activity (Streptococcus pneumoniae [32]) of 0%, an Activity (Streptococcus pneumoniae [33]) of 0% and an Activity (Streptococcus pneumoniae [34]) of 1.7%. It also gave an Activity [35] of 100%, an Activity [36] of 100% and an Activity [37] of 100%. The Activity [38] was 100%, the Activity [39] was 100% and the Activity [40] was 66.7%. The Activity [41] was 80%, the Activity [42] was 42.9% and the Activity [43] was 52.3%.
